The record followed here is patent US20060073099A1, “Treatment screening methods” (priority 2004, published 2006).

The subject of the test is Macaca mulatta (Rhesus monkey) exposed to a 6 Gy dose of γ-radiation (LD50/30).

Experimental: Treatment of whole body lethal radiation and characterization of mortality surrogate markers. Two groups of 10 Macaca mulatta (Rhesus monkey) were exposed to a 6 Gy dose of γ-radiation from a ^60Co source. This dose is an LD50/30 dose for this species. […] The animals in each group were treated once per day for 5 consecutive days beginning on the day the animals were exposed to radiation. The animals consisted of 12 males and 8 females with a body weight range of about 2.5-5.5 kg at the onset of treatment. The age range was 1.75-5.0 years at the onset of treatment.
Twelve male and eight female rhesus monkeys were assigned to the study. Each group comprised of seven male and three female animals. During the acclimation period, animals were assigned to their respective dose groups by randomization based on the absolute neutrophil count. The average of 3 pretreatment absolute neutrophil counts were used for each animal.
The test article (100 mg/mL AED) and vehicle or control article in aliquots of 10 mL. Test article was an aqueous suspension in vehicle. The vehicle article consists of a solution of sodium shloride (0.9% w/v), carboxymethylcellulose (0.5% w/v), polysorbate 80 (2% v/v), benzalkonium chloride (0.02% v/v) and sodium phosphate (10 mM, pH 6.5). Immediately prior to drawing into a syringe, the test article formulation was briefly vortexed to uniformly distribute sedimented test article. Once drawn into a syringe, the test article was administered within 10 minutes. Just prior to injection, the syringe containing the test article was rotated end-over-end to uniformly disperse the compound.
Whole body radiation. The animals were exposed to ionizing as follows. Dosimetry measurements using phantoms, the dose rate and duration of irradiation and the actual time of irradiation for each individual animal was recorded. Animals were fasted overnight prior to whole-body irradiation and fed upon return to the housing facility.
The animals received a midline treatment dose of 600 cGy. The dose rate of the ^60Co gamma source was about 60 cGy per minute and the actual rate was recorded for each animal. To obtain a homogenous dose distribution, the radiation treatment was divided in two parts. First, the animal received half of the dose by anteroposterior irradiation. The second half of the dose was delivered by posteroanterior irradiation. […] The radiation dose was calibrated using an acrylic phantom placed in the same experimental set up that was used for animal irradiation.

As for `C[C@]12CC[C@H]3[C@@H](CC=C4C[C@@H](O)CC[C@@]43C)[C@@H]1CC[C@@H]2O` [3β,17β-dihydroxyandrost-5-ene], under “600 cGy 60Co whole body γ-irradiation, 15 mg/kg i.m. once per day for 5 consecutive days, first injection 2-3 hours after irradiation, 10 animals, observed to day 40-41”, the animals survived is 9 of 10. Under “600 cGy whole body irradiation, 15 mg/kg i.m. daily x5, 10 animals, p=0.009 by exact test of homogeneity vs vehicle (51 days)”, the “days of severe thrombocytopenia (less than 20,000 platelets/μL) experienced collectively by the group” value was 32 days. Also, the “median days of febrile severe neutropenia” value (600 cGy whole body irradiation, 15 mg/kg i.m. daily x5, 95% CI 0,2, p=0.037 by exact log rank test vs vehicle (median 5 days)) came out at 0 days. In addition, under “600 cGy whole body irradiation, 15 mg/kg i.m. daily x5, Fisher's exact test mid p=0.073 vs two combined control groups (45% mortality)”, the Mortality amounted to 10%. In addition, for the setting “600 cGy whole body irradiation, 15 mg/kg i.m. daily x5, the one non-survivor did not have the condition”, the “survivors having febrile severe neutropenia (core body temperature >40.4° C. and absolute neutrophil count less than 500 cells/μL) at some time during the protocol” value is listed as 2 animals.
